For 6 compounds, IC50 results are on record in ChEMBL document CHEMBL5131530, “5-Oxopyrrolidine-3-carboxamides as Nav1.8 Inhibitors for Treating Pain Disorders, Cough Disorders, and Acute and Chronic Itch Disorders” (ACS Med Chem Lett, 2022).

Each structure is given as a SMILES string.

The target in the assay is Sodium channel protein type 10 subunit alpha (Homo sapiens, UniProt Q9Y5Y9). Kind of assay: Inhibition of human Nav1.8 channel stably expressed in HEK293 cells assessed as sodium current flow at holding potential of -90mV by whole-cell voltage clamp assay. The assay is classed as cell-based.
Sequence of Sodium channel protein type 10 subunit alpha (Q9Y5Y9 whole entry, looked up): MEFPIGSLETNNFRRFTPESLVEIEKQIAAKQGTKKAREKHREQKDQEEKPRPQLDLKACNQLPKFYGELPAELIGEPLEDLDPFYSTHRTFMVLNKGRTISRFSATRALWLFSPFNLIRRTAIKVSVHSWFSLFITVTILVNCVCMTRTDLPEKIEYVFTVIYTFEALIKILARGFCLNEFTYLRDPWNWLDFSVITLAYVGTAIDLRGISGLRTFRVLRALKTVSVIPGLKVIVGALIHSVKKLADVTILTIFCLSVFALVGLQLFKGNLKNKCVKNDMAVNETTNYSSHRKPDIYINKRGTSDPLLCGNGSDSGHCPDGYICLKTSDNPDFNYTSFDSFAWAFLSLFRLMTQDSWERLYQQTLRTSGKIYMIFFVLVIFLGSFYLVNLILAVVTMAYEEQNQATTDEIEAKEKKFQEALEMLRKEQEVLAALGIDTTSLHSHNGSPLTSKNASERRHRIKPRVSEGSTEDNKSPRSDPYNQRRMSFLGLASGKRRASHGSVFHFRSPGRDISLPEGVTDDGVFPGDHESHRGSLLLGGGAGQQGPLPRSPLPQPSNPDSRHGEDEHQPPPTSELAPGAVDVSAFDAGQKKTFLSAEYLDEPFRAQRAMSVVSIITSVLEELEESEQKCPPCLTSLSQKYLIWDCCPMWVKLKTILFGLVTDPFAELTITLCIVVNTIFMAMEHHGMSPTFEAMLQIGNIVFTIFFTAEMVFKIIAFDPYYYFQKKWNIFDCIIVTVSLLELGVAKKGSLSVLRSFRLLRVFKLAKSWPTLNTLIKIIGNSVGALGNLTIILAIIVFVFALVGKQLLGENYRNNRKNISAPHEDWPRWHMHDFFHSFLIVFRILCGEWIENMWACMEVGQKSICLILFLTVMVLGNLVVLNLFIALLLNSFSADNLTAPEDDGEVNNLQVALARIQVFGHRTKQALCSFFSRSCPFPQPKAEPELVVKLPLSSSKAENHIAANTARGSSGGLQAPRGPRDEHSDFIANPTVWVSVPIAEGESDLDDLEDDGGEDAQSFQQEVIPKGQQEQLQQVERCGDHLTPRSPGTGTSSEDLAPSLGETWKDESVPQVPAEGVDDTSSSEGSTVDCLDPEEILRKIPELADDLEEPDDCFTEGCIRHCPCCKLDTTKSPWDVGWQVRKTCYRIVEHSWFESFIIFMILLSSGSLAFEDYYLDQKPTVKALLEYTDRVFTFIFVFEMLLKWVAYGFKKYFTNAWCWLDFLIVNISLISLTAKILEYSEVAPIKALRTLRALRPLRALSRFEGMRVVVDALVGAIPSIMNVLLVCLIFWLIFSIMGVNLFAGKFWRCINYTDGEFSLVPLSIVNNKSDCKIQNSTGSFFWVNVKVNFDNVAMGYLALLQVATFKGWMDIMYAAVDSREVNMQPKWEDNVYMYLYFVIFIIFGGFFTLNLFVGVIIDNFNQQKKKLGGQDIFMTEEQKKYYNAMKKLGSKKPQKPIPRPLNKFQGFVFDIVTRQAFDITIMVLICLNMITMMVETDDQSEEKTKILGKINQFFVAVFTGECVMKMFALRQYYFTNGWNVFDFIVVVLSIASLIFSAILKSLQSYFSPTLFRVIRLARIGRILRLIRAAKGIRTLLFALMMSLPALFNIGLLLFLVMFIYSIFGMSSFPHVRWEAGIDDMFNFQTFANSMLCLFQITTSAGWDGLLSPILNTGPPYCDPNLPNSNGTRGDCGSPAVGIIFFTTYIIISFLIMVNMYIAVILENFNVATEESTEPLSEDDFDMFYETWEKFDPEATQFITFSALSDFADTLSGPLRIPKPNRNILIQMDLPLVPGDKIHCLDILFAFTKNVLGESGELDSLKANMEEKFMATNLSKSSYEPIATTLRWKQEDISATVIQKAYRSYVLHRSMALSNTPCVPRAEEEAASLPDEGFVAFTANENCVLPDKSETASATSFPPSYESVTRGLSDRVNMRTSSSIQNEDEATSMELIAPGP
As usually defined, the IC50 is the concentration needed to halve the response being measured. Take `O=C1C[C@H](C(=O)NC(c2ccc(Cl)cc2)c2ccc(Cl)c(C(F)(F)F)c2)CN1` (stereo partly specified): the IC50 amounted to 1.2 nM. Take `O=C1C[C@H](C(=O)NC(c2ccc(Cl)cc2)c2ccc(OC(F)(F)F)cc2)CN1` (stereo partly specified): the IC50 is 4.1 nM.

With `O=C1C[C@H](C(=O)NC(c2ccc(F)c(Cl)c2)c2ccc(F)c(C(F)(F)F)n2)CN1` (stereo partly specified), the IC50 is 2.9 nM. Consider `O=C1C[C@H](C(=O)NC(c2ccc(Cl)cc2)c2ccc(F)c(Cl)c2)CN1` (stereo partly specified), for which the 50% inhibitory concentration (IC50) turned out to be 3.4 nM.

In the case of `O=C1C[C@H](C(=O)NC(c2ccc(Cl)cc2)c2ccc(F)c(C(F)(F)F)c2)CN1` (stereo partly specified), the IC50 was 2.6 nM. With `O=C1C[C@H](C(=O)NC(c2cnc(C(F)(F)F)c(Cl)c2)c2ccc(F)c(Cl)c2F)CN1` (stereo partly specified) the figure was 4.2 nM.
